The molecules below were run against purified human MMP-12 enzyme (Homo sapiens, UniProt P39900) (assay: MMP-12 FRET assay). Details: substrate 20 μM, room temperature.
Format: biochemical
Description: Compounds according to the present teachings were tested in an MMP-12 FRET assay as follows. To each well of black polystyrene 96-well plate was added assay buffer (50 mM HEPES (pH 7.4), 100 mM NaCl, 5 mM CaCl2 and 0.005% Brij-35 (Polyoxyethyleneglycol dodecyl ether, Pierce cat#20150), purified human MMP-12 enzyme, and varied concentrations of test compounds (prepared by serial dilution of a stock solution in 100% DMSO). The plates were incubated at room temperature for 30 minutes. The enzymatic reactions were initiated by addition of a substrate, MCA-Pro-Leu-Gly-Leu-Dpa(DNP)-Ala-Arg, containing a fluorescent group (7-methoxycoumarin, MCA) and a 2,4-dinitrophenyl group (DNP), to a final concentration of 20 μM. The final DMSO concentration in the assay was 10%. The reaction was monitored for 30 minutes at room temperature and the initial rate of the cleavage reaction was determined using a fluorescence plate reader (λex: 325 nm, λem: 395 nm). Plots of the inhibitor concentration vs. the initial cleavage rate were fit to the following equation: y=Vmax*(1−(x^n/(K^n+x^n))), whereby x=inhibitor concentration, y=initial rate, Vmax=initial rate in the absence of inhibitor, n=slope factor, and K=IC50 for the inhibition curve.

Sequence of purified human MMP-12 enzyme (P39900 106-470): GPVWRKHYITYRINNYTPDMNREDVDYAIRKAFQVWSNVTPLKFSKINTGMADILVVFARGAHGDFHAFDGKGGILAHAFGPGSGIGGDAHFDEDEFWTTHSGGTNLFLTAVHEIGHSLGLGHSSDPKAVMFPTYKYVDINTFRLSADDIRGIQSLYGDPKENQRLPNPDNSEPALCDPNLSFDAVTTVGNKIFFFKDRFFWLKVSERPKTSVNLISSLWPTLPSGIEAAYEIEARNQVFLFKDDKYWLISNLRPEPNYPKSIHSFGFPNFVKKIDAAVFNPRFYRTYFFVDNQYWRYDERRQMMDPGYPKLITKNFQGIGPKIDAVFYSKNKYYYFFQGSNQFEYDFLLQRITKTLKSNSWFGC

Row | Molecule | IC50
1 | CC(C)[C@H](NS(=O)(=O)c1ccc2c(c1)oc1ccc(-c3ccc(C(C)(C)C)o3)cc12)C(=O)O [Compound 198, (S)-2-(8-(5-tert-butylfuran-2-yl)dibenzo[b,d]furan-3-sulfonamido)-3-methylbutanoic acid] | 5.6 nM
2 | COc1cccc2sc(-c3ccc4oc5cc(S(=O)(=O)N[C@H](C(=O)O)C(C)C)ccc5c4c3)nc12 [Compound 223, (S)-2-(8-(4-methoxybenzo[d]thiazol-2-yl)dibenzo[b,d]furan-3-sulfonamido)-3-methylbutanoic acid] | 13 nM
3 | Cc1n[nH]c(C)c1-c1ccc2sc3cc(S(=O)(=O)N[C@H](C(=O)O)C(C)C)ccc3c2c1 [Compound 41, (S)-2-(8-(3,5-dimethyl-1H-pyrazol-4-yl)dibenzo[b,d]thiophene-3-sulfonamido)-3-methylbutanoic acid] | 77 nM
4 | Cc1nc(CC(C)C)sc1-c1ccc2c(c1)oc1ccc(S(=O)(=O)N[C@@H](C(=O)O)C(C)C)cc12 [Compound 245, (R)-2-(7-(2-isobutyl-4-methylthiazol-5-yl)dibenzo[b,d]furan-2-sulfonamido)-3-methylbutanoic acid] | 13 nM
5 | CC(C)[C@@H](NS(=O)(=O)c1ccc2oc3cc(-c4noc(CC(C)(C)C)n4)ccc3c2c1)C(=O)O [Compound 189, (R)-3-methyl-2-(7-(5-neopentyl-1,2,4-oxadiazol-3-yl)dibenzo[b,d]furan-2-sulfonamido)butanoic acid] | 4.5 nM
6 | CC(C)[C@H](NS(=O)(=O)c1ccc2c(c1)oc1ccc(-c3ccc4c(c3)C(C)(C)OC(=O)N4)cc12)C(=O)O [Compound 4, (S)-2-(8-(4,4-dimethyl-2-oxo-2,4-dihydro-1H-benzo[d][1,3]oxazin-6-yl)dibenzo[b,d]furan-3-sulfonamido)-3-methylbutanoic acid] | 12.2 nM
7 | Cc1nc(CC(C)C)sc1-c1ccc2c(c1)oc1cc(S(=O)(=O)N[C@H](C(=O)O)C(C)C)ccc12 [Compound 235, (S)-2-(7-(2-isobutyl-4-methylthiazol-5-yl)dibenzo[b,d]furan-3-sulfonamido)-3-methylbutanoic acid] | 11 nM
8 | CC(C)[C@H](NS(=O)(=O)c1ccc2c(c1)oc1ccc(C(=O)O)cc12)C(=O)O [Compound 273, (S)-7-(N-(1-carboxy-2-methylpropyl)sulfamoyl)dibenzo[b,d]furan-2-carboxylic acid] | 210 nM
9 | CC(C)[C@H](NS(=O)(=O)c1ccc2c(c1)oc1ccc(-c3cnn(CCN4CCOCC4)c3)cc12)C(=O)O [Compound 158, (S)-3-methyl-2-(8-(1-(2-morpholinoethyl)-1H-pyrazol-4-yl)dibenzo[b,d]furan-3-sulfonamido)butanoic acid] | 223 nM
10 | CC(C)(C)c1nc(-c2ccc3c(c2)oc2ccc(S(=O)(=O)N[C@H](C(=O)O)C(C)(C)C)cc23)no1 [Compound 282, (S)-2-(7-(5-tert-butyl-1,2,4-oxadiazol-3-yl)dibenzo[b,d]furan-2-sulfonamido)-3,3-dimethylbutanoic acid] | 150 nM
11 | CC(C)[C@H](NS(=O)(=O)c1ccc2c(c1)oc1ccc(-c3ccc4oc5cc(S(=O)(=O)N[C@H](C(=O)O)C(C)C)ccc5c4c3)cc12)C(=O)O [Compound 125] | 17 nM
12 | Cc1nc(-c2ccc3c(c2)oc2cc(S(=O)(=O)N[C@H](C(=O)O)C(C)C)ccc23)no1 [Compound 156, (S)-3-methyl-2-(7-(5-methyl-1,2,4-oxadiazol-3-yl)dibenzo[b,d]furan-3-sulfonamido)butanoic acid] | 6.9 nM
13 | Cc1nc(CC(C)C)sc1-c1ccc2c(c1)oc1ccc(S(=O)(=O)N[C@H](C(=O)O)C(C)C)cc12 [Compound 247, (S)-2-(7-(2-isobutyl-4-methylthiazol-5-yl)dibenzo[b,d]furan-2-sulfonamido)-3-methylbutanoic acid] | 131 nM
14 | CC(C)[C@H](NS(=O)(=O)c1ccc2c(c1)oc1ccc(C(=N)N(C)C(C)C)cc12)C(=O)O [Compound 110, (S)-2-(8-(N-isopropyl-N-methylcarbamimidoyl)dibenzo[b,d]furan-3-sulfonamido)-3-methylbutanoic acid] | 425 nM
15 | CC(C)[C@H](NS(=O)(=O)c1ccc2c(c1)oc1ccc(-c3ncc(Cn4cccn4)s3)cc12)C(=O)O [Compound 214, (S)-2-(8-(5-((1H-pyrazol-1-yl)methyl)thiazol-2-yl)dibenzo[b,d]furan-3-sulfonamido)-3-methylbutanoic acid] | 3.7 nM
16 | CC(C)[C@H](NS(=O)(=O)c1ccc2c(c1)oc1cc(-c3nc4ccc(C(F)(F)F)cc4s3)ccc12)C(=O)O [Compound 236, (S)-3-methyl-2-(7-(6-(trifluoromethyl)benzo[d]thiazol-2-yl)dibenzo[b,d]furan-3-sulfonamido)butanoic acid] | 12 nM
17 | CC(C)[C@@H](NS(=O)(=O)c1ccc2oc3cc(-c4ccc(C(C)(C)C)o4)ccc3c2c1)C(=O)O [Compound 240, (R)-2-(7-(5-tert-butylfuran-2-yl)dibenzo[b,d]furan-2-sulfonamido)-3-methylbutanoic acid] | 19 nM
18 | Cc1nn(C)c(C)c1-c1ccc2c(c1)oc1ccc(S(=O)(=O)N[C@@H](C(=O)O)C(C)C)cc12 [Compound 174, (R)-3-methyl-2-(7-(1,3,5-trimethyl-1H-pyrazol-4-yl)dibenzo[b,d]furan-2-sulfonamido)butanoic acid] | 227 nM
19 | CC(C)[C@H](NS(=O)(=O)c1ccc2c(c1)sc1ccc(-c3cccnc3)cc12)C(=O)O [Compound 11, (S)-3-methyl-2-(8-(pyridin-3-yl)dibenzo[b,d]thiophene-3-sulfonamido)butanoic acid] | 15.6 nM
20 | (R)-2-(7-(5-ethyl-1,2,4-oxadiazol-3-yl)dibenzo[b,d]furan-2-sulfonamido)-3-methylbutanoic acid [Compound 140] | 3.8 nM

Molecules with a lower IC50, results first:

Row | IC50 | Molecule
21 | 2.6 nM | CC(C)[C@@H](NS(=O)(=O)c1ccc2c(c1)sc1cc(-c3ccccc3)ccc12)C(=O)O [Compound 314, (R)-3-methyl-2-(7-phenyldibenzo[b,d]thiophene-3-sulfonamido)butanoic acid]
22 | < 1.5 nM | CC(C)[C@@H](NS(=O)(=O)c1ccc2c(c1)sc1cc(-c3ccco3)ccc12)C(=O)O [Compound 129, (R)-2-(7-(furan-2-yl)dibenzo[b,d]thiophene-3-sulfonamido)-3-methylbutanoic acid]
23 | 1.7 nM | CC(C)[C@H](NS(=O)(=O)c1ccc2c(c1)oc1cc(-c3nc4ccccc4s3)ccc12)C(=O)O [Compound 226, (S)-2-(7-(benzo[d]thiazol-2-yl)dibenzo[b,d]furan-3-sulfonamido)-3-methylbutanoic acid]
24 | < 1.5 nM | CC(C)[C@H](NS(=O)(=O)c1ccc2c(c1)oc1ccc(-c3nc(Br)cs3)cc12)C(=O)O [Compound 217, (S)-2-(8-(4-bromothiazol-2-yl)dibenzo[b,d]furan-3-sulfonamido)-3-methylbutanoic acid]
25 | 2.5 nM | Cc1ccc(-c2ccc3c(c2)oc2cc(S(=O)(=O)N[C@H](C(=O)O)C(C)C)ccc23)s1 [Compound 142, (S)-3-methyl-2-(7-(5-methylthiophen-2-yl)dibenzo[b,d]furan-3-sulfonamido)butanoic acid]
26 | < 1.5 nM | CC(C)[C@H](NS(=O)(=O)c1ccc2c(c1)oc1ccc(-c3sc(Cl)cc3Cl)cc12)C(=O)O [Compound 75, (S)-2-(8-(3,5-dichlorothiophen-2-yl)dibenzo[b,d]furan-3-sulfonamido)-3-methylbutanoic acid]
27 | < 1.5 nM | CC(C)[C@H](NS(=O)(=O)c1ccc2c(c1)oc1ccc(-c3cnn(C)c3)cc12)C(=O)O [Compound 18, (S)-3-methyl-2-(8-(1-methyl-1H-pyrazol-4-yl)dibenzo[b,d]furan-3-sulfonamido)butanoic acid]
28 | 2.2 nM | CC(C)[C@@H](NS(=O)(=O)c1ccc2oc3cc(-c4ccc(Br)s4)ccc3c2c1)C(=O)O [Compound 144, (R)-2-(7-(5-bromothiophen-2-yl)dibenzo[b,d]furan-2-sulfonamido)-3-methylbutanoic acid]
29 | < 1.5 nM | CCc1ccc(-c2ccc3c(c2)oc2ccc(S(=O)(=O)N[C@@H](C(=O)O)C(C)C)cc23)s1 [Compound 239, (R)-2-(7-(5-ethylthiophen-2-yl)dibenzo[b,d]furan-2-sulfonamido)-3-methylbutanoic acid]
30 | 1.9 nM | CC(C)[C@H](NS(=O)(=O)c1ccc2c(c1)oc1cc(C(=N)NO)ccc12)C(=O)O [Compound 186, (S)-2-(7-(N-hydroxycarbamimidoyl)dibenzo[b,d]furan-3-sulfonamido)-3-methylbutanoic acid]
31 | < 1.5 nM | CC(C)[C@H](NS(=O)(=O)c1ccc2c(c1)oc1ccc(-c3csc4ccccc34)cc12)C(=O)O [Compound 12, (S)-2-(8-(benzo[b]thiophen-3-yl)dibenzo[b,d]furan-3-sulfonamido)-3-methylbutanoic acid]
32 | < 1.5 nM | CC(C)[C@H](NS(=O)(=O)c1ccc2c(c1)oc1ccc(-c3nc4cc(F)ccc4s3)cc12)C(=O)O [Compound 219, (S)-2-(8-(5-fluorobenzo[d]thiazol-2-yl)dibenzo[b,d]furan-3-sulfonamido)-3-methylbutanoic acid]
33 | < 1.5 nM | CC(C)[C@H](NS(=O)(=O)c1ccc2c(c1)oc1ccc(-c3cnc(Cl)s3)cc12)C(=O)O [Compound 179, (S)-2-(8-(2-chlorothiazol-5-yl)dibenzo[b,d]furan-3-sulfonamido)-3-methylbutanoic acid]

From US20100227859A1, “TRICYCLIC COMPOUNDS AS MATRIX METALLOPROTEINASE INHIBITORS” (priority 2007, published 2010)
